# Laboratory results published in the supplement of paper PMC11061612.
# Legend:
# [1] = compound: Cc1cc2ncnn2cc1Nc1ncc2c(n1)n(C1CCOCC1)c(=O)n2C [AZD7648]; conditions: max 10 µM
# Method in brief: (§1)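 Cancer cell lines were seeded into 1536-well plates in 7.5 μl medium (DMEM/F12 or RPMI, 10% FBS), held 24 hours at 37°C and 5% CO2, and dosed for 72 hours with final DMSO typically 0.2%. Luminescence from CellTiter-Glo 2.0, scaled between blank-well and DMSO-well means, served as viability. The single-agent IC50 was obtained from dose-response fits with a non-linear mixed effects model, each fit being a two-parameter logistic curve.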
# [2] = compound: CN(CC[C@H](CSC1=CC=CC=C1)NC2=C(C=C(C=C2)S(=O)(=O)NC(=O)C3=CC=C(C=C3)N4CCC(CC4)[C@H](C5=CC=CC=C5C6=CC=C(C=C6)Cl)O)S(=O)(=O)C(F)(F)F)CCO [AZD4320]; conditions: max 1 µM
# Method in brief: as §1
# [3] = compound: COc1cccc(OCCCN)c1-c1cc(Nc2cnc(C#N)cn2)n[nH]1 [Prexasertib]; conditions: max 1 µM
# Method in brief: as §1
# [4] = compound: C[C@@H]1COCCN1C2=NC(=NC(=C2)C3(CC3)[S@](=N)(=O)C)C4=C5C=CNC5=NC=C4 [AZD6738]; conditions: max 10 µM
# Method in brief: as §1
# [5] = compound: C[C@@H](Nc1cc(F)cc(F)c1)c1cc(C(=O)N(C)C)cc2c(=O)cc(N3CCOCC3)oc12 [AZD8186]; conditions: max 3 µM
# Method in brief: as §1
# [6] = compound: C=CCn1c(=O)c2cnc(Nc3ccc(N4CCN(C)CC4)cc3)nc2n1-c1cccc(C(C)(C)O)n1 [AZD1775]; conditions: max 3 µM
# Method in brief: as §1
# [7] = compound: COc1cccc2c1C(=O)c1c(O)c3c(c(O)c1C2=O)C[C@@](O)(C(=O)CO)C[C@@H]3O[C@H]1C[C@H](N)[C@H](O)[C@H](C)O1 [Doxorubicin]; conditions: max 1 µM
# Method in brief: as §1
# [8] = compound: CS(=O)(=O)CCNCc1ccc(-c2ccc3ncnc(Nc4ccc(OCc5cccc(F)c5)c(Cl)c4)c3c2)o1 [Lapatinib]; conditions: max 10 µM
# Method in brief: as §1
# [9] = compound: C[C@@H](Oc1cc(-c2cnn(C3CCNCC3)c2)cnc1N)c1c(Cl)ccc(F)c1Cl [Crizotinib]; conditions: max 10 µM
# Method in brief: as §1
# [10] = compound: Cc1c2c(nn1C)CSCc1cc(n(C)n1)CSc1cc(c3ccccc3c1)OCCCc1c(C(=O)O)n(C)c3c-2c(Cl)ccc13 [AZD5991]; conditions: max 1 µM
# Method in brief: as §1
# [11] = compound: Cn1cnc2c(F)c(Nc3ccc(Br)cc3Cl)c(C(=O)NOCCO)cc21 [Selumetinib]; conditions: max 10 µM
# Method in brief: as §1
# [12] = compound: C[C@@H](c1ccc2nccn2c1)n1nnc2ncc(-c3cnn(C)c3)nc21 [Savolitinib]; conditions: max 1 µM
# Method in brief: as §1
# [13] = compound: COc1nnc2ccc(N3CCC(c4ccc(OCCN5CCN(C)C(=O)[C@H]5C)cc4)CC3)nn12 [AZD5153]; conditions: max 1 µM
# Method in brief: as §1
# [14] = compound: CC1=CN2[C@@H](C1)C=NC3=CC(=C(C=C3C2=O)OC)OCCCCCOC4=C(C=C5C(=C4)N=C[C@@H]6CC(=CN6C5=O)C)OC [SG3199]; conditions: max 0.001 µM
# Method in brief: as §1
# [15] = compound: C1CN(CCC1(C(=O)N[C@@H](CCO)C2=CC=C(C=C2)Cl)N)C3=NC=NC4=C3C=CN4 [Capivasertib]; conditions: max 10 µM
# Method in brief: as §1
# [16] = compound: CC1(C)CCC(CN2CCN(c3ccc(C(=O)NS(=O)(=O)c4ccc(NCC5CCOCC5)c([N+](=O)[O-])c4)c(Oc4cnc5[nH]ccc5c4)c3)CC2)=C(c2ccc(Cl)cc2)C1 [Venetoclax]; conditions: max 1 µM
# Method in brief: as §1
# [17] = compound: Cc1nc(-c2cn3c(n2)-c2ccc(-c4cnn(C(C)(C)C(N)=O)c4)cc2OCC3)n(C(C)C)n1 [Taselisib]; conditions: max 10 µM
# Method in brief: as §1
# [18] = compound: CCc1c2c(nc3ccc(O)cc13)-c1cc3c(c(=O)n1C2)COC(=O)[C@]3(O)CC [SN-38]; conditions: max 0.3 µM
# Method in brief: as §1
# [19] = compound: COc1cc2ncnc(Nc3ccc(F)c(Cl)c3)c2cc1OCCCN1CCOCC1 [Gefitinib]; conditions: max 10 µM
# Method in brief: as §1
# [20] = compound: O=C(c1cc(Cc2n[nH]c(=O)c3ccccc23)ccc1F)N1CCN(C(=O)C2CC2)CC1 [Olaparib]; conditions: max 10 µM
# Method in brief: as §1
# [21] = compound: CC(C)n1c(=O)n(C)c2cnc3cc(F)c(-c4ccc(OCCCN5CCCCC5)nc4)cc3c21 [AZD1390]; conditions: max 0.3 µM
# Method in brief: as §1
# [22] = compound: CN(C)CCCOc1ccc(-c2ccc3ncc4c(c3c2)n(C2CCOCC2)c(=O)n4C)cn1 [AZD0156]; conditions: max 3 µM
# Method in brief: as §1
# [23] = compound: CC(=O)Nc1cccc(-n2c(=O)n(C3CC3)c(=O)c3c(Nc4ccc(I)cc4F)n(C)c(=O)c(C)c32)c1 [Trametinib]; conditions: max 1 µM
# Method in brief: as §1
# [24] = compound: CC1=C(C(=CC=C1)Cl)NC(=O)C2=CN=C(S2)NC3=CC(=NC(=N3)C)N4CCN(CC4)CCO [Dasatinib]; conditions: max 2 µM
# Method in brief: as §1
# [25] = compound: CCN(CCO)CCCOc1ccc2c(Nc3cc(CC(=O)Nc4cccc(F)c4)[nH]n3)ncnc2c1 [AZD2811]; conditions: max 1 µM
# Method in brief: as §1
# [26] = compound: COc1cc(Nc2ncc3c(n2)-c2ccc(Cl)cc2C(c2c(F)cccc2OC)=NC3)ccc1C(=O)O [Alisertib]; conditions: max 10 µM
# Method in brief: as §1
# [27] = compound: CC(=O)c1c(C)c2cnc(Nc3ccc(N4CCNCC4)cn3)nc2n(C2CCCC2)c1=O [Palbociclib]; conditions: max 10 µM
# Method in brief: as §1
# [28] = compound: NC1(c2ccc(-c3nc4ccn5c(=O)[nH]nc5c4cc3-c3ccccc3)cc2)CCC1 [MK-2206]; conditions: max 10 µM
# Method in brief: as §1
Cell Line,"IC50, cell viability 72 h [1] [µM]","IC50, cell viability 72 h [2] [µM]","IC50, cell viability 72 h [3] [µM]","IC50, cell viability 72 h [4] [µM]","IC50, cell viability 72 h [5] [µM]","IC50, cell viability 72 h [6] [µM]","IC50, cell viability 72 h [7] [µM]","IC50, cell viability 72 h [8] [µM]","IC50, cell viability 72 h [9] [µM]","IC50, cell viability 72 h [10] [µM]","IC50, cell viability 72 h [11] [µM]","IC50, cell viability 72 h [12] [µM]","IC50, cell viability 72 h [13] [µM]","IC50, cell viability 72 h [14] [µM]","IC50, cell viability 72 h [15] [µM]","IC50, cell viability 72 h [16] [µM]","IC50, cell viability 72 h [17] [µM]","IC50, cell viability 72 h [18] [µM]","IC50, cell viability 72 h [19] [µM]","IC50, cell viability 72 h [20] [µM]","IC50, cell viability 72 h [21] [µM]","IC50, cell viability 72 h [22] [µM]","IC50, cell viability 72 h [23] [µM]","IC50, cell viability 72 h [24] [µM]","IC50, cell viability 72 h [25] [µM]","IC50, cell viability 72 h [26] [µM]","IC50, cell viability 72 h [27] [µM]","IC50, cell viability 72 h [28] [µM]"
MDA-MB-361 (Breast Carcinoma),> 10,> 1,0.00652,2.18,> 3,0.515,> 1,> 10,> 10,0.579,> 10,> 1,> 1,> 0.001,9.81,> 1,0.103,0.275,> 10,> 10,> 0.3,> 3,> 1,> 2,> 1,> 10,> 10,–
MFE-296 (Endometrial Carcinoma),> 10,> 1,0.385,> 10,> 3,> 3,> 1,> 10,> 10,> 1,> 10,> 1,> 1,> 0.001,> 10,> 1,> 10,0.158,> 10,> 10,> 0.3,> 3,> 1,> 2,> 1,> 10,> 10,> 10
NOS-1 (Osteosarcoma),> 10,> 1,> 1,7.74,> 3,0.757,> 1,> 10,7.98,0.361,> 10,> 1,0.119,> 0.001,> 10,> 1,1.44,> 0.3,> 10,> 10,> 0.3,> 3,> 1,0.192,> 1,> 10,> 10,–
OVCA420 (Ovarian Carcinoma),> 10,> 1,0.178,> 10,> 3,> 3,> 1,1.33,> 10,> 1,7.91,> 1,0.126,> 0.001,> 10,> 1,0.989,> 0.3,4.45,> 10,> 0.3,> 3,0.156,0.265,> 1,> 10,> 10,> 10
SK-ES-1 (Ewing's Sarcoma),> 10,0.15,0.028,2.89,> 3,0.618,0.0533,> 10,1.41,0.236,> 10,> 1,0.296,> 0.001,> 10,> 1,0.676,0.0016,> 10,2.61,> 0.3,> 3,> 1,> 2,0.0179,0.0941,2.39,–
SNU-5 (Gastric Carcinoma),> 10,> 1,0.0181,1.31,> 3,1.85,> 1,> 10,0.0869,> 1,2.57,0.00744,> 1,> 0.001,> 10,> 1,> 10,0.00692,> 10,> 10,> 0.3,> 3,0.0811,> 2,> 1,> 10,> 10,> 10
TCCSUP (Bladder Carcinoma),> 10,> 1,0.165,8.38,> 3,2.31,> 1,> 10,> 10,> 1,> 10,> 1,> 1,> 0.001,> 10,> 1,> 10,0.201,> 10,> 10,> 0.3,> 3,> 1,> 2,> 1,> 10,> 10,–
